Source: patent US11174232B2, “Substituted heterocyclyl derivatives as CDK inhibitors” (Aurigene Discovery Technologies Limited, priority 2015, dated 2021)

Biological target: CDK7/CycH/MNAT1 (Homo sapiens (Human), UniProt P50613)
Experiment: Biochemical Assay for CDK7 (TR-FRET kinase assay)
Details: 60 min pre-incubation with kinase, 1 mM ATP; for inhibition at 10 µM: 10 μM compound
Protocol: Biochemical Assay for CDK7:
The ability of compounds to inhibit CDK7 kinase activity was tested in a TR-FRET assay using 5 nM of CDK7/CycH/MNAT1 obtained from Invitrogen, USA. Test compounds were pre-incubated with the kinase at room temperature for 60 min. After the incubation, substrate mix [100 nM Ultra-light MBP (Perkin Elmer, USA) and 1 mM ATP (Sigma)] was added. The above reaction was stopped by the addition of 40 mM EDTA after 60 minutes of kinase reaction. 1 nM Eu-labelled antiphospho-MBP antibody [Perkin Elmer, USA] was added, mixed well and the fluorescence emission at 615 nm and 665 nm [excitation at 340 nm] was measured. The final DMSO concentration in the assay was 1%. For IC50 determination, appropriate concentrations were made by ⅓^rd serial dilutions of 10 mM DMSO stock solution of test compound. All the fluorescence measurements were made in a Victor 3 Multilabel Counter [Perkin Elmer, USA]. The IC50 was determined by fitting the dose response data to sigmoidal curve fitting equation using GraphPad Prism software V5. To identify compounds that inhibit CDK7 irreversibly, time depended inhibition studies were carried by pre-incubating compound with the enzyme at three time points (20, 60 and 180 min) and carrying out assay as described above.
The compounds were screened by the above mentioned assay procedure.

Chain of CDK7/CycH/MNAT1 (P50613 whole entry): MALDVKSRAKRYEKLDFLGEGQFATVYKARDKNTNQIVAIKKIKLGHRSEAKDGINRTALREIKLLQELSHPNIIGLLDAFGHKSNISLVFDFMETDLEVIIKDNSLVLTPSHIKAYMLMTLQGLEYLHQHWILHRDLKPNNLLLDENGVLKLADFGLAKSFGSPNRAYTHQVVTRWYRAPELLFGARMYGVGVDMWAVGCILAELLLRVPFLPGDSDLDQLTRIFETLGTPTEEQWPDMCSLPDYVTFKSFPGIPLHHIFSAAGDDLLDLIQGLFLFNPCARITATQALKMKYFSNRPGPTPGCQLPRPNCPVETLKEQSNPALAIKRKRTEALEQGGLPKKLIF
Chain of CDK7/CycH/MNAT1 (P51946 whole entry partner): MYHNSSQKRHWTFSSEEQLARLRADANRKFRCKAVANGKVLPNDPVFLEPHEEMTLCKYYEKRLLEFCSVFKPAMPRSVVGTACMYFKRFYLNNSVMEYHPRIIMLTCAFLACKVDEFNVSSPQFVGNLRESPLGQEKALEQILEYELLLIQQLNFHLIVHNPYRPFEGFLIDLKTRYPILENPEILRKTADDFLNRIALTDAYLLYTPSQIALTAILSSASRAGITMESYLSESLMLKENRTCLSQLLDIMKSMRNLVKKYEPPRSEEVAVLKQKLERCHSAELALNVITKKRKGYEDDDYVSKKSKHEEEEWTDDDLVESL
Chain of CDK7/CycH/MNAT1 (P51948 whole entry partner): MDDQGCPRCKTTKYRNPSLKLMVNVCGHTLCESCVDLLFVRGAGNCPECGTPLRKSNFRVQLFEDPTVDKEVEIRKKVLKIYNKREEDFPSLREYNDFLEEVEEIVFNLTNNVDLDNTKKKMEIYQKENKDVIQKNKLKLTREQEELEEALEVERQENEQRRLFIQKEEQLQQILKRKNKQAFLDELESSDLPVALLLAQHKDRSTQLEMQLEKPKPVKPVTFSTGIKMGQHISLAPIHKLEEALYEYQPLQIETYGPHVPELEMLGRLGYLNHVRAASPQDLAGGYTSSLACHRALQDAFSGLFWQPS

SMILES | inhibition at 10 µM [%] | IC50 [nM]
COC/C=C/C(=O)Nc1ccc(-c2cccc(C(C)C(=O)Nc3cc(C4CC4)[nH]n3)c2)cn1 (centres unmarked) [Compound 41, (E)-N-(5-(3-(1-((5-cyclopropyl-1H-pyrazol-3-yl)amino)-1-oxopropan-2-yl)phenyl)pyridin-2-yl)-4-methoxybut-2-enamide] | 90 | > 100
CC(C(=O)Nc1cc(C2CC2)[nH]n1)c1cccc(-c2ccc(NC(=O)/C=C/CN3CCOCC3)c(F)n2)c1 (centres unmarked) [Compound 58, (E)-N-(6-(3-(1-((5-cyclopropyl-1H-pyrazol-3-yl)amino)-1-oxopropan-2-yl)phenyl)-2-fluoropyridin-3-yl)-4-morpholinobut-2-enamide] | 90 | > 100
CC(C(=O)Nc1cc(C2CC2)[nH]n1)c1cccc(-c2ccc(NC(=O)/C=C/CN3CCOCC3)nc2F)c1 (centres unmarked) [Compound 59, (E)-N-(5-(3-(1-((5-cyclopropyl-1H-pyrazol-3-yl)amino)-1-oxopropan-2-yl)phenyl)-6-fluoropyridin-2-yl)-4-morpholinobut-2-enamide] | 99 | 25 to 100
CC(C(=O)Nc1cc(C2CC2)[nH]n1)c1cccc(-c2cncc(NC(=O)/C=C/CN3CCOCC3)c2)c1 (centres unmarked) [Compound 60, (E)-N-(5-(3-(1-((5-cyclopropyl-1H-pyrazol-3-yl)amino)-1-oxopropan-2-yl)phenyl)pyridin-3-yl)-4-morpholinobut-2-enamide] | 99 | 25 to 100
CC(C(=O)Nc1cc(C2CC2)[nH]n1)c1cccc(-c2cccc(NC(=O)/C=C/CN3CCOCC3)c2)c1 (centres unmarked) [Compound 61, (E)-N-(3′-(1-((5-cyclopropyl-1H-pyrazol-3-yl)amino)-1-oxopropan-2-yl)-[1,1′-biphenyl]-3-yl)-4-morpholinobut-2-enamide] | 92 | > 100
CON(C)C/C=C/C(=O)Nc1ccc(-c2cccc(C(C)C(=O)Nc3cc(C4CC4)[nH]n3)c2)cn1 (centres unmarked) [Compound 62, (E)-N-(5-(3-(1-((5-cyclopropyl-1H-pyrazol-3-yl)amino)-1-oxopropan-2-yl)phenyl)pyridin-2-yl)-4-(methoxy(methyl)amino)but-2-enamide] | 81 | > 100
CC(C(=O)Nc1cc(C2CC2)[nH]n1)c1cccc(-c2cnc(NC(=O)/C=C/CN3CCOCC3)c(F)c2)c1 (centres unmarked) [Compound 63, (E)-N-(5-(3-(1-((5-cyclopropyl-1H-pyrazol-3-yl)amino)-1-oxopropan-2-yl)phenyl)-3-fluoropyridin-2-yl)-4-morpholinobut-2-enamide] | 98 | 25 to 100
CC(C(=O)Nc1cc(C2CC2)[nH]n1)c1cccc(-c2ccc(NC(=O)/C=C/CN3CCC(F)C3)c(F)n2)c1 (centres unmarked) [Compound 64, (E)-N-(6-(3-(1-((5-cyclopropyl-1H-pyrazol-3-yl)amino)-1-oxopropan-2-yl)phenyl)-2-fluoropyridin-3-yl)-4-(3-fluoropyrrolidin-1-yl)but-2-enamide] | 94 | 25 to 100
C=CC(=O)Nc1ccc(-c2cccc(C(C)C(=O)Nc3cc(C4CC4)[nH]n3)c2)cc1OC (centres unmarked) [Compound 65, N-(3′-(1-((5-cyclopropyl-1H-pyrazol-3-yl)amino)-1-oxopropan-2-yl)-3-methoxy-[1,1′-biphenyl]-4-yl)acrylamide] | 94 | > 100
C=CC(=O)Nc1ccc(-c2cccc(C(C)C(=O)Nc3cc(C4CC4)[nH]n3)c2)cc1C (centres unmarked) [Compound 66, N-(3′-(1-((5-cyclopropyl-1H-pyrazol-3-yl)amino)-1-oxopropan-2-yl)-3-methyl-[1,1′-biphenyl]-4-yl)acrylamide] | 88 | > 100
C=CC(=O)Nc1c(C)cc(-c2cccc(C(C)C(=O)Nc3cc(C4CC4)[nH]n3)c2)cc1C (centres unmarked) [Compound 67, N-(3′-(1-((5-cyclopropyl-1H-pyrazol-3-yl)amino)-1-oxopropan-2-yl)-3,5-dimethyl-[1,1′-biphenyl]-4-yl)acrylamide] | 79 | > 100
COCCN(C)C/C=C/C(=O)Nc1ccc(-c2cccc(C(C)C(=O)Nc3cc(C4CC4)[nH]n3)c2)cn1 (centres unmarked) [Compound 68, (E)-N-(5-(3-(1-((5-cyclopropyl-1H-pyrazol-3-yl)amino)-1-oxopropan-2-yl)phenyl)pyridin-2-yl)-4-((2-methoxyethyl)(methyl)amino)but-2-enamide] | 95 | < 25
CC(C(=O)Nc1cc(C2CC2)[nH]n1)c1cccc(-c2ccc(NC(=O)/C=C/Cn3ccnc3)nc2)c1 (centres unmarked) [Compound 69, (E)-N-(5-(3-(1-((5-cyclopropyl-1H-pyrazol-3-yl)amino)-1-oxopropan-2-yl)phenyl)pyridin-2-yl)-4-(1H-imidazol-1-yl)but-2-enamide] | 87 | 25 to 100
COC[C@@H]1CCCN1C/C=C/C(=O)Nc1ccc(-c2cccc(C(C)C(=O)Nc3cc(C4CC4)[nH]n3)c2)cn1 (stereo partly drawn) [Compound 70, (E)-N-(5-(3-(1-((5-cyclopropyl-1H-pyrazol-3-yl)amino)-1-oxopropan-2-yl)phenyl)pyridin-2-yl)-4-((S)-2-(methoxymethyl)pyrrolidin-1-yl)but-2-enamide] | 81 | 25 to 100
C=CC(=O)Nc1ccc(-c2cccc(C(C)C(=O)Nc3cc(C4CC4)[nH]n3)c2)c(OC)c1 (centres unmarked) [Compound 73, N-(3′-(1-((5-cyclopropyl-1H-pyrazol-3-yl)amino)-1-oxopropan-2-yl)-2-methoxy-[1,1′-biphenyl]-4-yl)acrylamide] | 91 | > 100

Next, values leading:

inhibition at 10 µM [%] | IC50 [nM] | SMILES
98 | < 25 | CC(C(=O)Nc1cc(C2CC2)[nH]n1)c1cccc(-c2ccc(NC(=O)/C=C/CN(C)C)nc2)c1 (centres unmarked) [Compound 42, (E)-N-(5-(3-(1-((5-cyclopropyl-1H-pyrazol-3-yl)amino)-1-oxopropan-2-yl)phenyl)pyridin-2-yl)-4-(dimethylamino)but-2-enamide]
99 | < 25 | CC(C)C(C(=O)Nc1cc(C2CC2)[nH]n1)c1cccc(-c2ccc(NC(=O)/C=C/CN(C)C)c(F)c2)c1 (centres unmarked) [Compound 43, (E)-N-(3′-(1-((5-cyclopropyl-1H-pyrazol-3-yl)amino)-3-methyl-1-oxobutan-2-yl)-3-fluoro-[1,1′-biphenyl]-4-yl)-4-(dimethylamino)but-2-enamide]
99 | < 25 | CC(C)C(C(=O)Nc1cc(C2CC2)[nH]n1)c1cccc(-c2ccc(NC(=O)/C=C/CN3CCOCC3)nc2)c1 (centres unmarked) [Compound 44, (E)-N-(5-(3-(1-((5-cyclopropyl-1H-pyrazol-3-yl)amino)-3-methyl-1-oxobutan-2-yl)phenyl)pyridin-2-yl)-4-morpholinobut-2-enamide]
89 | < 25 | CC(C(=O)Nc1cc(C2CC2)[nH]n1)c1cccc(-c2ccc(NC(=O)/C=C/CN3CCC(F)C3)nc2)c1 (centres unmarked) [Compound 45, (E)-N-(5-(3-(1-((5-cyclopropyl-1H-pyrazol-3-yl)amino)-1-oxopropan-2-yl)phenyl)pyridin-2-yl)-4-(3-fluoropyrrolidin-1-yl)but-2-enamide]
95 | < 25 | CC(C(=O)Nc1cc(C2CC2)[nH]n1)c1cccc(-c2ccc(NC(=O)/C=C/CN3CC[C@H](F)C3)nc2)c1 (stereo partly drawn) [Compound 46, (E)-N-(5-(3-(1-((5-cyclopropyl-1H-pyrazol-3-yl)amino)-1-oxopropan-2-yl)phenyl)pyridin-2-yl)-4-((S)-3-fluoropyrrolidin-1-yl)but-2-enamide]
89 | < 25 | CC(C(=O)Nc1cc(C2CC2)[nH]n1)c1cccc(-c2ccc(NC(=O)/C=C/CN3CC[C@@H](F)C3)nc2)c1 (stereo partly drawn) [Compound 49, (E)-N-(5-(3-(1-((5-cyclopropyl-1H-pyrazol-3-yl)amino)-1-oxopropan-2-yl)phenyl)pyridin-2-yl)-4-((R)-3-fluoropyrrolidin-1-yl)but-2-enamide]
91 | < 25 | CC(C(=O)Nc1cc(C2CC2)[nH]n1)c1cccc(-c2ccc(NC(=O)/C=C/CN3CCCC3)nc2)c1 (centres unmarked) [Compound 52, (E)-N-(5-(3-(1-((5-cyclopropyl-1H-pyrazol-3-yl)amino)-1-oxopropan-2-yl)phenyl)pyridin-2-yl)-4-(pyrrolidin-1-yl)but-2-enamide]
95 | < 25 | CCN(CC)C/C=C/C(=O)Nc1ccc(-c2cccc(C(C)C(=O)Nc3cc(C4CC4)[nH]n3)c2)cn1 (centres unmarked) [Compound 55, (E)-N-(5-(3-(1-((5-cyclopropyl-1H-pyrazol-3-yl)amino)-1-oxopropan-2-yl)phenyl)pyridin-2-yl)-4-(diethylamino)but-2-enamide]
96 | < 25 | CC(C)C(C(=O)Nc1cc(C2CC2)[nH]n1)c1cccc(-c2ccc(NC(=O)/C=C/CN(C)C)nc2)c1 (centres unmarked) [Compound 56, (E)-N-(5-(3-(1-((5-cyclopropyl-1H-pyrazol-3-yl)amino)-3-methyl-1-oxobutan-2-yl)phenyl)pyridin-2-yl)-4-(dimethylamino)but-2-enamide]
98 | < 25 | CC(C(=O)Nc1cc(C2CC2)[nH]n1)c1cccc(-c2ccc(NC(=O)/C=C/CN3CCCC(F)C3)nc2)c1 (centres unmarked) [Compound 57, (E)-N-(5-(3-(1-((5-cyclopropyl-1H-pyrazol-3-yl)amino)-1-oxopropan-2-yl)phenyl)pyridin-2-yl)-4-(3-fluoropiperidin-1-yl)but-2-enamide]
